Test systems include HOP-62 NSCLC; HCC-2998 colon; OVCAR-3 ovarian; BT-549 breast; KM12 colon; MDA-MB-231 breast; MCF7 breast; TK-10 renal; IGROV1 ovarian; RPMI-8226 leukemia.
Holding throughout (experiment): NCI tumour cell line growth inhibition, 48 h

Several values for one entry are separate records, joined by “and”; a condition that tells them apart may be missing. Equal values may be shown once.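 Cultured in 96-well plates, cells were exposed to test compound for 48 hours across five concentrations. At the GI50, growth is halved. At the TGI there is no net growth.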 Where a SMILES comes first, the peptide text is derived from it. [ ]: non-standard residue; d: D form. The star is where a group is joined. ξ: configuration not given here. X3 = COc1ccc(C(N*)c2ccc(OC)cc2)cc1; NMeF = CN[C@@H](Cc1ccccc1)C(=O)O; NMeD = CN[C@@H](CC(=O)O)C(=O)O; NMeV = CN[C@H](C(=O)O)C(C)C; ξNMeV = CNC(C(=O)O)C(C)C; Boc = CC(C)(C)OC(=O)*; ξNMeA = CNC(C)C(=O)O; ξV = CC(C)C(N)C(=O)O

As to `COc1cc(/C(C#N)=C/c2nc3c(N4CCOCC4)nc(Cl)nc3n2C)cc(OC)c1OC`, the GI50 is less than 0.01 µM in the experiment with HOP-62 NSCLC; less than 0.0157 µM in the experiment on HCC-2998 colon; less than 0.01 µM in the experiment on OVCAR-3 ovarian; less than 0.01 µM in the experiment on BT-549 breast; less than 0.01 µM in the experiment with KM12 colon; less than 0.01 µM with MDA-MB-231 breast. Also, the GI50 was less than 0.0115 µM in the experiment on MCF7 breast, 2.91 µM in the experiment with TK-10 renal, less than 0.01 µM with IGROV1 ovarian and less than 0.01 µM in the experiment on RPMI-8226 leukemia. Besides, the TGI in the experiment on HOP-62 NSCLC was 12.9 µM; with HCC-2998 colon, 2.19 µM; in the experiment with OVCAR-3 ovarian it was less than 0.01 µM; in the experiment with BT-549 breast, 0.481 µM; with KM12 colon, 4.36 µM; in the experiment on MDA-MB-231 breast, 35.9 µM. In addition, the TGI is more than 32.5 µM with MCF7 breast, 17.8 µM with TK-10 renal, 16.6 µM with IGROV1 ovarian and 1.88 µM in the experiment on RPMI-8226 leukemia.
`O=C1NC(=NC(CO)Cc2ccccc2)S/C1=C\c1ccc2ncccc2c1` (stereo not given): the GI50 was > 23.4 µM and 6.05 µM in the experiment on HOP-62 NSCLC; 13.9 µM and 8.02 µM in the experiment on HCC-2998 colon; 19.8 µM and 2.73 µM in the experiment on OVCAR-3 ovarian; 12.4 µM and 2.25 µM in the experiment on KM12 colon; > 25 µM and 10.3 µM in the experiment on MDA-MB-231 breast; 7.25 µM and 2.98 µM with MCF7 breast. Also, the GI50 in the experiment on TK-10 renal was > 23.7 µM and 3.55 µM; in the experiment with IGROV1 ovarian it was 12.8 µM and 2.08 µM; with RPMI-8226 leukemia, > 18.4 µM and 2.33 µM. In addition, the TGI in the experiment on HOP-62 NSCLC was more than 25 µM; in the experiment with HCC-2998 colon, more than 25 µM; in the experiment on OVCAR-3 ovarian it was > 25 µM and 11.8 µM; in the experiment with BT-549 breast, > 25 µM and 11.4 µM; with KM12 colon, more than 25 µM; in the experiment with MDA-MB-231 breast, more than 25 µM. Also, the TGI in the experiment with MCF7 breast is more than 25 µM; in the experiment on TK-10 renal, more than 25 µM; with IGROV1 ovarian it was more than 25 µM; with RPMI-8226 leukemia, > 25 µM and 12.1 µM.
On to `CCn1c(-c2nonc2N)nc2c(C#CC(C)(C)O)nc(OC[C@@H](N)c3ccccc3)cc21`, for which the GI50 in the experiment on HOP-62 NSCLC is 6.09 µM; with HCC-2998 colon it was 4.31 µM; in the experiment on OVCAR-3 ovarian, 4.24 µM; in the experiment on BT-549 breast, 3.94 µM; in the experiment on KM12 colon it was 3.05 µM; in the experiment with MDA-MB-231 breast, 4.68 µM. For the same compound, the GI50 with MCF7 breast is 2.94 µM; with TK-10 renal it was 5.09 µM; in the experiment with IGROV1 ovarian, 5.04 µM; in the experiment on RPMI-8226 leukemia it was 6.51 µM. Moreover, the TGI with HOP-62 NSCLC amounted to 10.2 µM; in the experiment with HCC-2998 colon, 8.14 µM; in the experiment on OVCAR-3 ovarian, 8.23 µM; with BT-549 breast it was 7.48 µM; in the experiment on KM12 colon it was 6.75 µM; in the experiment with MDA-MB-231 breast it was 8.86 µM. The TGI in the experiment with MCF7 breast was found to be 6.12 µM; with TK-10 renal it was 11.3 µM; with IGROV1 ovarian it was 10.4 µM; in the experiment on RPMI-8226 leukemia, 15.5 µM.
Regarding `CN(C)c1cc(NN=C(c2ccc(O)cc2)c2ccc(O)cc2)c([N+](=O)[O-])cc1[N+](=O)[O-]`, the GI50 in the experiment on HOP-62 NSCLC was 10.5 µM; in the experiment with HCC-2998 colon it was 13.8 µM; in the experiment with OVCAR-3 ovarian, 2.53 µM; in the experiment with BT-549 breast, 6.32 µM; in the experiment on KM12 colon, 3.73 µM; in the experiment on MDA-MB-231 breast, 4.72 µM. The GI50 is 3.42 µM in the experiment on MCF7 breast, 7.35 µM in the experiment on TK-10 renal, 7.16 µM in the experiment with IGROV1 ovarian and 3.34 µM with RPMI-8226 leukemia. For the same compound, the TGI in the experiment on HOP-62 NSCLC worked out at 26.1 µM; in the experiment with HCC-2998 colon it was 27.8 µM; in the experiment on OVCAR-3 ovarian, 9.81 µM; in the experiment with BT-549 breast it was 21.5 µM; in the experiment with KM12 colon, 13.8 µM; in the experiment with MDA-MB-231 breast, 17.5 µM. Besides, the TGI in the experiment on MCF7 breast stood at 16 µM; in the experiment on TK-10 renal, 22 µM; in the experiment with IGROV1 ovarian it was 24.8 µM; with RPMI-8226 leukemia, 27.2 µM.
As for `COc1ccc(/C=N/NC(=O)c2cccc3cc[nH]c23)cc1O`, the GI50 in the experiment on HOP-62 NSCLC is 11.2 µM; in the experiment on HCC-2998 colon it was 6.96 µM; in the experiment on OVCAR-3 ovarian, 0.307 µM; with BT-549 breast it was 12.2 µM; in the experiment on KM12 colon, 0.883 µM; in the experiment on MDA-MB-231 breast, 0.685 µM. Further, the GI50 in the experiment on MCF7 breast is 0.63 µM; with TK-10 renal, 14.4 µM; in the experiment with IGROV1 ovarian, 7.91 µM; with RPMI-8226 leukemia, 3.38 µM. The TGI with HOP-62 NSCLC is more than 100 µM; with HCC-2998 colon, 97.5 µM; with OVCAR-3 ovarian, 1.89 µM; in the experiment on BT-549 breast, more than 78.8 µM; in the experiment with KM12 colon it was more than 100 µM; in the experiment with MDA-MB-231 breast, more than 35 µM. Moreover, the TGI in the experiment on MCF7 breast was more than 100 µM; in the experiment on TK-10 renal, more than 100 µM; in the experiment on IGROV1 ovarian, more than 100 µM; in the experiment on RPMI-8226 leukemia, 24.8 µM.
Consider `COc1ccc(C(NC(=O)C[C@@H](C(=O)N(C)C(C)C(=O)O)N(C)C(=O)[C@@H]2CCCN2C(=O)[C@H](C(C)C)N(C)C(=O)C(C(C)C)N(C)C(=O)[C@H](Cc2ccccc2)N(C)C(=O)C(NC(=O)OC(C)(C)C)C(C)C)c2ccc(OC)cc2)cc1` (stereo not given in full) (Boc-[ξV][NMeF][ξNMeV][NMeV]P[NMeD](X3)[ξNMeA]-OH), for which the GI50 with HOP-62 NSCLC was 18.5 µM; in the experiment on HCC-2998 colon it was 19.3 µM; in the experiment on OVCAR-3 ovarian, 18.2 µM; in the experiment with KM12 colon it was 17.5 µM; in the experiment on TK-10 renal, 20.6 µM; with IGROV1 ovarian it was 14.7 µM. Besides, the TGI was 31.8 µM and 35.5 µM in the experiment with HOP-62 NSCLC; 14.8 µM and 36 µM in the experiment with HCC-2998 colon; 27.4 µM and 32.9 µM with OVCAR-3 ovarian; 15.4 µM with BT-549 breast; 15.2 µM and 34.1 µM with KM12 colon; 32.3 µM in the experiment on MDA-MB-231 breast. Besides, the TGI with MCF7 breast was 37.5 µM; in the experiment on TK-10 renal, 37.5 µM and 35.1 µM; with IGROV1 ovarian it was 27.8 µM and 28 µM; in the experiment with RPMI-8226 leukemia, 19.5 µM.
As to `O=CNc1ccc2c(c1)C(=O)c1ccccc1-2`, the TGI in the experiment on HOP-62 NSCLC, in the experiment on HCC-2998 colon, in the experiment with OVCAR-3 ovarian, in the experiment with BT-549 breast, with KM12 colon and with MDA-MB-231 breast was more than 100 µM in each case. Besides, the TGI with MCF7 breast, in the experiment with TK-10 renal, in the experiment on IGROV1 ovarian and with RPMI-8226 leukemia was more than 100 µM each time.
In the case of `CC(=O)CC(OC(C)=O)C1=CCC2C(CC1C)OC(=O)C2C` (stereo not given), the TGI with HOP-62 NSCLC, with HCC-2998 colon, in the experiment with OVCAR-3 ovarian, with BT-549 breast, in the experiment on KM12 colon and with MDA-MB-231 breast was more than 100 µM each time. For the same compound, the TGI with MCF7 breast, in the experiment on TK-10 renal, with IGROV1 ovarian and in the experiment on RPMI-8226 leukemia was more than 100 µM each time.

These data come from PubChem BioAssay (NCI).
